# Source: patent US8648066B2 (Exelixis, Inc., priority 2009, dated 2014)
# Molecular target: mTOR/GbL/Raptor (mTORC1) (Homo sapiens, UniProt P42345)
# Experiment: mTOR/GbL/Raptor (mTORC1) ELISA assay
# Assay type: biochemical
# Conditions: phosphorylation of 4E-BP1; 0.2 nM mTORC1, 10 μM ATP; read-out: IC50 in this assay (mTORC1 ELISA)
# Procedure: The measurement of mTORC1 enzyme activity was performed in an ELISA assay format following the phosphorylation of 4E-BP1 protein. All experiments were performed in the 384-well format. Generally, 0.5 μL DMSO containing varying concentrations of the test Compound was mixed with 15 μL enzyme solution. Kinase reactions were initiated with the addition of 15 μL of substrates-containing solution. The assay conditions were as follows; 0.2 nM mTORC1, 10 μM ATP and 50 nM NHis-tagged 4E-BP1 in 20 mM Hepes, pH 7.2, 1 mM DTT, 50 mM NaCl, 10 mM MnCl2, 0.02 mg/mL BSA, 0.01% CHAPS, 50 mM β-glycerophosphate. Following an incubation of 120 minutes at ambient temperature, 20 μL of the reaction volume was transferred to a Ni-Chelate-coated 384-well plate. The binding step of the 4E-BP1 protein proceeded for 60 minutes, followed by washing 4 times each with 50 μL of Tris-buffered saline solution (TBS). Anti-phospho-4E-BP1 rabbit-IgG (20 μL, 1:5000) in 5% BSA-TBST (0.2% Tween-20 in TBS) was added and further incubated for 60 minutes. Incubation with a secondary HRP-tagged anti-IgG was similarly performed after washing off the primary antibody (4 washes of 50 μL). Following the final wash step with TBST, 20 μL of SuperSignal ELISA Femto (Pierce Biotechnology) was added and the luminescence measured using an EnVision plate reader.
row,Structure (SMILES),IC50 [nM]
1,"Cc1nc2ccc(-c3ccc4c(c3)CN(c3cc(-c5ccccc5)nc5ccccc35)CCO4)cc2[nH]1 [Example 100, 7-(2-methyl-1H-benzimidazol-6-yl)-4-(2-phenylquinolin-4-yl)-2,3,4,5-tetrahydro-1,4-benzoxazepine]",250 to 1000
2,"COC(=O)Nc1nc2ccc(-c3ccc4c(c3)CN(c3ccncn3)CCO4)cc2[nH]1 [Example 107, methyl-6[(4-pyrimidin-4-yl-2,3,4,5-tetrahydro-1,4-benzoxazepin-7-yl)-1H-benzimidazol-2-yl]carbamate]",≥ 2000
3,"COC(=O)Nc1nc2ccc(-c3ccc4c(c3)CN(c3nc(C)nc5ccccc35)CCO4)cc2[nH]1 [Example 108, methyl {6-[4-(2-methylquinazolin-4-yl)-2,3,4,5-tetrahydro-1,4-benzoxazepin-7-yl]-1H-benzimidazol-2-yl}carbamate]",250 to 1000
4,"COC(=O)Nc1nc2ccc(-c3ccc4c(c3)CN(c3ncnc5ccccc35)CCO4)cc2[nH]1 [Example 109, methyl [6-(4-quinazolin-4-yl-2,3,4,5-tetrahydro-1,4-benzoxazepin-7-yl)-1H-benzimidazol-2-yl]carbamate]",250 to 1000
5,"COC(=O)Nc1nc2ccc(-c3ccc4c(c3)CN(c3ncnc5[nH]ccc35)CCO4)cc2[nH]1 [Example 110, methyl {6-[4-(7H-pyrrolo[2,3-d]pyrimidin-4-yl)-2,3,4,5-tetrahydro-1,4-benzoxazepin-7-yl]-1H-benzimidazol-2-yl}carbamate]",≥ 2000
6,"COC(=O)Nc1nc2ccc(-c3ccc4c(c3)CN(c3ncnc5cc(OC)c(OC)cc35)CCO4)cc2[nH]1 [Example 111, methyl (6-{4-[6,7-bis(methyloxy)quinazolin-4-yl]-2,3,4,5-tetrahydro-1,4-benzoxazepin-7-yl}-1H-benzimidazol-2-yl)carbamate]",1000 to 2000
7,"COC(=O)Nc1nc2ccc(-c3ccc4c(c3)CN(c3ncnc5ccc(OC)cc35)CCO4)cc2[nH]1 [Example 112, methyl (6-{4-[6-(methyloxy)quinazolin-4-yl]-2,3,4,5-tetrahydro-1,4-benzoxazepin-7-yl}-1H-benzimidazol-2-yl)carbamate]",250 to 1000
8,"COC(=O)Nc1nc2ccc(-c3ccc4c(c3)CN(c3ccnc5ccccc35)CCO4)cc2[nH]1 [Example 114, methyl [6-(4-quinolin-4-yl-2,3,4,5-tetrahydro-1,4-benzoxazepin-7-yl)-1H-benzimidazol-2-yl]carbamate]",250 to 1000
9,"Cn1c(N)nc2cc(-c3ccc4c(c3)CN(c3ccnc5ccccc35)CCO4)ccc21 [Example 116, 1-methyl-5-(4-quinolin-4-yl-2,3,4,5-tetrahydro-1,4-benzoxazepin-7-yl)-1H-benzimidazol-2-amine]",1000 to 2000
10,"c1ccc2c(N3CCOc4ccc(-c5ccc6nc[nH]c6c5)cc4C3)ccnc2c1 [Example 126, 7-(1H-benzimidazol-6-yl)-4-quinolin-4-yl-2,3,4,5-tetrahydro-1,4-benzoxazepine]",250 to 1000
11,"c1ccc2c(N3CCOc4ccc(-c5ccc6scnc6c5)cc4C3)ccnc2c1 [Example 129, 7-(1,3-benzothiazol-5-yl)-4-quinolin-4-yl-2,3,4,5-tetrahydro-1,4-benzoxazepine]",250 to 1000
12,"c1ccc2c(N3CCOc4ccc(-c5ccc6nccnc6c5)cc4C3)ccnc2c1 [Example 132, 4-quinolin-4-yl-7-quinoxalin-6-yl-2,3,4,5-tetrahydro-1,4-benzoxazepine]",≥ 2000
13,"CN(C)C(=O)c1cccc(-c2ccc3c(c2)CN(c2ccnc4ccccc24)CCO3)c1 [Example 134, N,N-dimethyl-3-(4-quinolin-4-yl-2,3,4,5-tetrahydro-1,4-benzoxazepin-7-yl)benzamide]",≥ 2000
14,"c1ccc2c(N3CCOc4ccc(-c5ccc6c(c5)CCO6)cc4C3)ccnc2c1 [Example 135, 7-(2,3-dihydro-1-benzofuran-5-yl)-4-quinolin-4-yl-2,3,4,5-tetrahydro-1,4-benzoxazepine]",1000 to 2000
15,"c1ccc2c(N3CCOc4ccc(-c5ccc6cn[nH]c6c5)cc4C3)ccnc2c1 [Example 136, 7-(1H-indazol-6-yl)-4-quinolin-4-yl-2,3,4,5-tetrahydro-1,4-benzoxazepine]",1000 to 2000

# Continued, values first:
row,IC50 [nM],Structure (SMILES)
1,250 to 1000,"Cc1nc2ccc(-c3ccc4c(c3)CN(c3ncnc(C)c3Cc3cccc(C(F)(F)F)c3)CCO4)cc2[nH]1 [Example 92, 7-(2-methyl-1H-benzimidazol-6-yl)-4-(6-methyl-5-{[3-(trifluoromethyl)phenyl]methyl}pyrimidin-4-yl)-2,3,4,5-tetrahydro-1,4-benzoxazepine]"
2,≤ 10,"Cc1nc2ccc(-c3ccc4c(c3)CN(c3ncnc(C)c3Cc3ccc(Cl)c(N(C)C)c3)CCO4)cc2[nH]1 [Example 93, 2-chloro-N,N-dimethyl-5-({4-methyl-6-[7-(2-methyl-1H-benzimidazol-6-yl)-2,3-dihydro-1,4-benzoxazepin-4(5H)-yl]pyrimidin-5-yl}methyl)aniline]"
3,≤ 10,"Cc1nc2ccc(-c3ccc4c(c3)CN(c3ncnc(C)c3C(C)c3cccc(F)c3)CCO4)cc2[nH]1 (stereo not shown) [Example 94, 4-{5-[1-(3-fluorophenyl)ethyl]-6-methylpyrimidin-4-yl}-7-(2-methyl-1H-benzimidazol-6-yl)-2,3,4,5-tetrahydro-1,4-benzoxazepine]"
4,10 to 50,"Cc1nc2ccc(-c3ccc4c(c3)CN(c3ncnc5c3CCC(C)(C)C5)CCO4)cc2[nH]1 [Example 95, 4-(7,7-dimethyl-5,6,7,8-tetrahydroquinazolin-4-yl)-7-(2-methyl-1H-benzimidazol-6-yl)-2,3,4,5-tetrahydro-1,4-benzoxazepine]"
5,250 to 1000,"Cc1nc2ccc(-c3ccc4c(c3)CN(c3ccnc(N)n3)CCO4)cc2[nH]1 [Example 96, 4-[7-(2-methyl-1H-benzimidazol-6-yl)-2,3-dihydro-1,4-benzoxazepin-4(5H)-yl]pyrimidin-2-amine]"
6,≤ 10,"Cc1nc(C)c(Cc2ccc(F)cc2)c(N2CCOc3ccc(-c4ccc5nc(C)[nH]c5c4)cc3C2)n1 [Example 97, 4-{5-[(4-fluorrophenyl)methyl]-2,6-dimethylpyrimidin-4-yl}-7-(2-methyl-1H-benzimidazol-6-yl)-2,3,4,5-tetrahydro-1,4-benzoxazepine]"
7,50 to 250,"Cc1nc2ccc(-c3ccc4c(c3)CN(c3ccnc5ccccc35)CCO4)cc2[nH]1 [Example 98, 7-(2-methyl-1H-benzimidazol-6-yl)-4-quinolin-4-yl-2,3,4,5-tetrahydro-1,4-benzoxazepine]"
8,50 to 250,"Cc1nc2ccc(-c3ccc4c(c3)CN(c3cc(C(F)(F)F)nc5ccccc35)CCO4)cc2[nH]1 [Example 99, 7-(2-methyl-1H-benzimidazol-6-yl)-4-[2-(trifluoromethyl)quinolin-4-yl]-2,3,4,5-tetrahydro-1,4-benzoxazepine]"
9,10 to 50,"Cc1nc2ccc(-c3ccc4c(c3)CN(c3ccnc(C)c3Cc3ccccc3)CCO4)cc2[nH]1 [Example 101, 7-(2-methyl-1H-benzimidazol-6-yl)-4-[2-methyl-3-(phenylmethyl)pyridin-4-yl]-2,3,4,5-tetrahydro-1,4-benzoxazepine]"
10,≤ 10,"Cc1nc2ccc(-c3ccc4c(c3)CN(c3ccnc(C)c3Cc3ccc(F)cc3)CCO4)cc2[nH]1 [Example 102, 4-{3-[(4-fluorophenyl)methyl]-2-methylpyridin-4-yl}-7-(2-methyl-1H-benzimidazol-6-yl)-2,3,4,5-tetrahydro-1,4-benzoxazepine]"
11,≤ 10,"Cc1nc2ccc(-c3ccc4c(c3)CN(c3ccnc(C)c3Cc3cccc(F)c3)CCO4)cc2[nH]1 [Example 103, 4-{3-[(3-fluorophenyl)methyl]-2-methylpyridin-4-yl}-7-(2-methyl-1H-benzimidazol-6-yl)-2,3,4,5-tetrahydro-1,4-benzoxazepine]"
12,50 to 250,"Cc1nc2ccc(-c3ccc4c(c3)CN(c3nccc5ccccc35)CCO4)cc2[nH]1 [Example 105, 4-isoquinolin-1-yl-7-(2-methyl-1H-benzimidazol-6-yl)-2,3,4,5-tetrahydro-1,4-benzoxazepine]"
13,10 to 50,"COC(=O)Nc1nc2ccc(-c3ccc4c(c3)CN(c3ncnc(C)c3Cc3ccc(F)cc3)CCO4)cc2[nH]1 [Example 113, methyl [6-(4-{5-[(4-fluorophenyl)methyl]-6-methylpyrimidin-4-yl}-2,3,4,5-tetrahydro-1,4-benzoxazepin-7-yl)-1H-benzimidazol-2-yl]carbamate]"
14,50 to 250,"c1ccc2c(N3CCOc4ccc(-c5ccc6nc[nH]c6c5)cc4C3)ncnc2c1 [Example 123, 7-(1H-benzimidazol-6-yl)-4-quinazolin-4-yl-2,3,4,5-tetrahydro-1,4-benzoxazepine]"
15,≤ 10,"Cc1ncnc(N2CCOc3ccc(-c4cnc(N)s4)cc3C2)c1Cc1ccc(F)cc1 [Example 124, 5-(4-{5-[(4-fluorophenyl)methyl]-6-methylpyrimidin-4-yl}-2,3,4,5-tetrahydro-1,4-benzoxazepin-7-yl)-1,3-thiazol-2-amine]"
16,≤ 10,"Cc1ncnc(N2CCOc3ccc(-c4ccc(-c5ncc[nH]5)cc4)cc3C2)c1Cc1ccc(F)cc1 [Example 131, 4-{5-[(4-fluorophenyl)methyl]-6-methylpyrimidin-4-yl}-7-[4-(1H-imidazol-2-yl)phenyl]-2,3,4,5-tetrahydro-1,4-benzoxazepine]"
